Target: BRAF^V600E protein (Homo sapiens, UniProt P15056, V600E)
Test: HiBiT cellular BRAF V600E degradation assay
Type: cell-based
Conditions: 24 h incubation; for DC50: A375.10 cells (HiBiT tag knocked in at N-terminal of BRAF V600E), concentration at which 50% of total cellular BRAF V600E is degraded; for Emax: A375.10 cells, Emax = amount of residual protein remaining in the cell after compound treatment, read-out: HiBit 24 h Emax

BRAF^V600E protein, sequence (P15056 whole entry V600E): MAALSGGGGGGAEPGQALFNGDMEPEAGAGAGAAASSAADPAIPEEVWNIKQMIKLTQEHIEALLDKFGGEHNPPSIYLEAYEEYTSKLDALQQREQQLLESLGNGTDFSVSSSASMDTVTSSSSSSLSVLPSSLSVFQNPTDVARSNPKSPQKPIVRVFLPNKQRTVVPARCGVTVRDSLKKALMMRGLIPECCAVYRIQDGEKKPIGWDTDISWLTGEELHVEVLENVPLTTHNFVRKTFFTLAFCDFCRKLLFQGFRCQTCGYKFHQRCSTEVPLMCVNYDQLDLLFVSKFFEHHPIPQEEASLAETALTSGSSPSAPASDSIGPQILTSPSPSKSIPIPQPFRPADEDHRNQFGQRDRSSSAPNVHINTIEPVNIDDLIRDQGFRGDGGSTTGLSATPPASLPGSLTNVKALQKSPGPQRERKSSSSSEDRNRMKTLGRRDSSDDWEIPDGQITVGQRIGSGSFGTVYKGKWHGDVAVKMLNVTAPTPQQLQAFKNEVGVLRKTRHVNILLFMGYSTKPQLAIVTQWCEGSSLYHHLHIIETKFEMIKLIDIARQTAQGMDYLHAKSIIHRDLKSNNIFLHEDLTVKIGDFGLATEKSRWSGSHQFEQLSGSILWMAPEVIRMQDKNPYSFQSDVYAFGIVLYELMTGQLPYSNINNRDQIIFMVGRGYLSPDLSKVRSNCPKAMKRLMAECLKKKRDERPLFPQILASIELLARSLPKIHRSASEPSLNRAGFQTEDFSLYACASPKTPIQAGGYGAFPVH

Row | SMILES | DC50 [nM] | Emax [%]
1 | CCN(C)S(=O)(=O)Nc1ccc(F)c(C(=O)c2c[nH]c3ncc(-c4ccc(N5CCN(C(=O)CC6(O)CCN(c7ccc(NC8CCC(=O)NC8=O)cc7F)CC6)CC5)cc4)cc23)c1Cl (stereo not shown) [Example 155, 3-[2-chloro-3-[[ethyl(methyl)sulfamoyl]amino]-6-fluoro-benzoyl]-5-[4-[4-[2-[1-[4-[(2,6-dioxo-3-piperidyl)amino]-2-fluoro-phenyl]-4-hydroxy-4-piperidyl]acetyl]piperazin-1-yl]phenyl]-1H-pyrrolo[2,3-b]pyridine] | 6.33 | 10.9
2 | CCN(C)S(=O)(=O)Nc1cccc(C(=O)c2c[nH]c3ncc(-c4ccc(N5CCN(C(=O)CC6(O)CCN(c7ccc(NC8CCC(=O)NC8=O)cc7Cl)CC6)CC5)nc4)cc23)c1F (stereo not shown) [Example 156, 5-[6-[4-[2-[1-[2-chloro-4-[(2,6-dioxo-3-piperidyl)amino]phenyl]-4-hydroxy-4-piperidyl]acetyl]piperazin-1-yl]-3-pyridyl]-3-[3-[[ethyl(methyl)sulfamoyl]amino]-2-fluoro-benzoyl]-1H-pyrrolo[2,3-b]pyridine] | 6.82 | 9.35
3 | CCN(C)S(=O)(=O)Nc1ccc(F)c(C(=O)c2c[nH]c3ncc(-c4cnc(N5CCN(C(=O)CC6(O)CCN(c7ccc(NC8CCC(=O)NC8=O)cc7Cl)CC6)CC5)nc4)cc23)c1F (stereo not shown) [Example 157, 5-[2-[4-[2-[1-[2-chloro-4-[(2,6-dioxo-3-piperidyl)amino]phenyl]-4-hydroxy-4-piperidyl]acetyl]piperazin-1-yl]pyrimidin-5-yl]-3-[3-[[ethyl(methyl)sulfamoyl]amino]-2,6-difluoro-benzoyl]-1H-pyrrolo[2,3-b]pyridine] | 6.19 | 8.52
4 | CCN(C)S(=O)(=O)Nc1ccc(F)c(C(=O)c2c[nH]c3ncc(-c4cnc(N5CCN(C(=O)CC6(OP(=O)(O)O)CCN(c7ccc(C8CCC(=O)NC8=O)cc7F)CC6)CC5)nc4)cc23)c1F (stereo not shown) [Example 158e, [1-[4-(2,6-dioxo-3-piperidyl)-2-fluoro-phenyl]-4-[2-[4-[5-[3-[3-[[ethyl(methyl)sulfamoyl]amino]-2,6-difluoro-benzoyl]-1H-pyrrolo[2,3-b]pyridin-5-yl]pyrimidin-2-yl]piperazin-1-yl]-2-oxo-ethyl]-4-piperidyl]dihydrogen phosphate] | 10.8 | 11.7
5 | CCN(C)S(=O)(=O)Nc1cccc(C(=O)c2c[nH]c3ncc(-c4ccc(N5CCN(C(=O)CC6(O)CCN(c7ccc(C8CCC(=O)NC8=O)cc7F)CC6)CC5)nc4)cc23)c1F (stereo not shown) [Example 159, 5-[6-[4-[2-[1-[4-(2,6-dioxo-3-piperidyl)-2-fluoro-phenyl]-4-hydroxy-4-piperidyl]acetyl]piperazin-1-yl]-3-pyridyl]-3-[3-[[ethyl(methyl)sulfamoyl]amino]-2-fluoro-benzoyl]-1H-pyrrolo[2,3-b]pyridine] | 3.51 | 6.33
6 | CCN(C)S(=O)(=O)Nc1ccc(F)c(C(=O)c2c[nH]c3ncc(-c4ccc(N5CCN(C(=O)CC6(O)CCN(c7ccc(C8CCC(=O)NC8=O)cc7F)CC6)CC5)nc4)cc23)c1F (stereo not shown) [Example 160, 5-[6-[4-[2-[1-[4-(2,6-dioxo-3-piperidyl)-2-fluoro-phenyl]-4-hydroxy-4-piperidyl]acetyl]piperazin-1-yl]-3-pyridyl]-3-[3-[[ethyl(methyl)sulfamoyl]amino]-2,6-difluoro-benzoyl]-1H-pyrrolo[2,3-b]pyridine] | 3.12 | 6.7
7 | CCN(C)S(=O)(=O)Nc1ccc(F)c(C(=O)c2c[nH]c3ncc(-c4cnc(N5CCC(n6cc7c(n6)CN(c6ccc(NC8CCC(=O)NC8=O)cc6)CC7)CC5)nc4)cc23)c1F (stereo not shown) [Example 161, 6-[4-[(2,6-dioxo-3-piperidyl)amino]phenyl]-2-[1-[5-[3-[3-[[ethyl(methyl)sulfamoyl]amino]-2,6-difluoro-benzoyl]-1H-pyrrolo[2,3-b]pyridin-5-yl]pyrimidin-2-yl]-4-piperidyl]-5,7-dihydro-4H-pyrazolo[3,4-c]pyridine] | 14.6 | 8.46
8 | CCN(C)S(=O)(=O)Nc1cccc(C(=O)c2c[nH]c3ncc(-c4cnc(N5CCN(C(=O)CC6(O)CCN(c7ccc(C8CCC(=O)NC8=O)cc7F)CC6)CC5)nc4)cc23)c1F (stereo not shown) [Example 162, 5-[2-[4-[2-[1-[4-(2,6-dioxo-3-piperidyl)-2-fluoro-phenyl]-4-hydroxy-4-piperidyl]acetyl]piperazin-1-yl]pyrimidin-5-yl]-3-[3-[[ethyl(methyl)sulfamoyl]amino]-2-fluoro-benzoyl]-1H-pyrrolo[2,3-b]pyridine] | 2.09 | 7.81
9 | CCN(C)S(=O)(=O)Nc1ccc(F)c(C(=O)c2c[nH]c3ncc(-c4cnc(N5CCN(C(=O)CC6(O)CCN(c7ccc8c(N9CCC(=O)NC9=O)nn(C)c8c7)CC6)CC5)nc4)cc23)c1F [Example 163, 3-(2,4-dioxohexahydropyrimidin-1-yl)-6-[4-[2-[4-[5-[3-[3-[[ethyl(methyl)sulfamoyl]amino]-2,6-difluoro-benzoyl]-1H-pyrrolo[2,3-b]pyridin-5-yl]pyrimidin-2-yl]piperazin-1-yl]-2-oxo-ethyl]-4-hydroxy-1-piperidyl]-1-methyl-indazole] | 4.52 | 9.67
10 | CCN(C)S(=O)(=O)Nc1cccc(C(=O)c2c[nH]c3ncc(-c4ccc(N5CCN(C(=O)CC6(O)CCN(c7ccc(N8CCC(=O)NC8=O)cc7F)CC6)CC5)nc4)cc23)c1F [Example 164, 5-[6-[4-[2-[1-[4-(2,4-dioxohexahydropyrimidin-1-yl)-2-fluoro-phenyl]-4-hydroxy-4-piperidyl]acetyl]piperazin-1-yl]-3-pyridyl]-3-[3-[[ethyl(methyl)sulfamoyl]amino]-2-fluoro-benzoyl]-1H-pyrrolo[2,3-b]pyridine] | 2.31 | 10.2
11 | CCN(C)S(=O)(=O)Nc1cccc(C(=O)c2c[nH]c3ncc(-c4cnc(N5CCN(C(=O)CC6(O)CCN(c7ccc(N8CCC(=O)NC8=O)cc7F)CC6)CC5)nc4)cc23)c1F [Example 165, 5-[2-[4-[2-[1-[4-(2,4-dioxohexahydropyrimidin-1-yl)-2-fluoro-phenyl]-4-hydroxy-4-piperidyl]acetyl]piperazin-1-yl]pyrimidin-5-yl]-3-[3-[[ethyl(methyl)sulfamoyl]amino]-2-fluoro-benzoyl]-1H-pyrrolo[2,3-b]pyridine] | 6.27 | 10.8
12 | CCN(C)S(=O)(=O)Nc1ccc(F)c(C(=O)c2c[nH]c3ncc(-c4cnc(N5CCN(C(=O)CC6(O)CCN(c7ccc(N8CCC(=O)NC8=O)cc7F)CC6)CC5)nc4)cc23)c1F [Example 167, 5-[2-[4-[2-[1-[4-(2,4-dioxohexahydropyrimidin-1-yl)-2-fluoro-phenyl]-4-hydroxy-4-piperidyl]acetyl]piperazin-1-yl]pyrimidin-5-yl]-3-[3-[[ethyl(methyl)sulfamoyl]amino]-2,6-difluoro-benzoyl]-1H-pyrrolo[2,3-b]pyridine] | 7.05 | 9.37
13 | CCN(C)S(=O)(=O)Nc1ccc(F)c(C(=O)c2c[nH]c3ncc(-c4ccc(N5CCN(C(=O)CC6(O)CCN(c7ccc(N8CCC(=O)NC8=O)cc7F)CC6)CC5)nc4)cc23)c1F [Example 168, 5-[6-[4-[2-[1-[4-(2,4-dioxohexahydropyrimidin-1-yl)-2-fluoro-phenyl]-4-hydroxy-4-piperidyl]acetyl]piperazin-1-yl]-3-pyridyl]-3-[3-[[ethyl(methyl)sulfamoyl]amino]-2,6-difluoro-benzoyl]-1H-pyrrolo[2,3-b]pyridine] | 3 | 10.2
14 | CCN(C)S(=O)(=O)Nc1ccc(F)c(C(=O)c2c[nH]c3ncc(-c4ccc(N5CCN(C(=O)CC6(O)CCN(c7ccc(N8CCC(=O)NC8=O)cc7F)CC6)CC5)cc4)cc23)c1F [Example 169, 5-[4-[4-[2-[1-[4-(2,4-dioxohexahydropyrimidin-1-yl)-2-fluoro-phenyl]-4-hydroxy-4-piperidyl]acetyl]piperazin-1-yl]phenyl]-3-[3-[[ethyl(methyl)sulfamoyl]amino]-2,6-difluoro-benzoyl]-1H-pyrrolo[2,3-b]pyridine] | 2.82 | 7.34
15 | CCN(C)S(=O)(=O)Nc1ccc(F)c(C(=O)c2c[nH]c3ncc(-c4ccc(N5CCN(C(=O)CC6(O)CCN(c7ccc(NC8CCC(=O)NC8=O)cc7F)CC6)CC5)nc4)cc23)c1Cl (stereo not shown) [Example 170, 3-[2-chloro-3-[[ethyl(methyl)sulfamoyl]amino]-6-fluoro-benzoyl]-5-[6-[4-[2-[1-[4-[(2,6-dioxo-3-piperidyl)amino]-2-fluoro-phenyl]-4-hydroxy-4-piperidyl]acetyl]piperazin-1-yl]-3-pyridyl]-1H-pyrrolo[2,3-b]pyridine] | 4.59 | 10.5
16 | CCN(C)S(=O)(=O)Nc1ccc(F)c(C(=O)c2c[nH]c3ncc(-c4ccc(N5CCN(C(=O)CN6CCC(N7CCN(C8CCC(=O)NC8=O)C(=O)C7)C(F)(F)C6)CC5)nc4)cc23)c1F (stereo not shown) [Example 171, 5-[6-[4-[2-[4-[4-(2,6-dioxo-3-piperidyl)-3-oxo-piperazin-1-yl]-3,3-difluoro-1-piperidyl]acetyl]piperazin-1-yl]-3-pyridyl]-3-[3-[[ethyl(methyl)sulfamoyl]amino]-2,6-difluoro-benzoyl]-1H-pyrrolo[2,3-b]pyridine] | 5.87 | 7.61
17 | CCN(C)S(=O)(=O)Nc1ccc(F)c(C(=O)c2c[nH]c3ncc(-c4ccc(N5CCN(C(=O)CN6CCC(N7CCN(C8CCC(=O)NC8=O)C(=O)C7)C(F)(F)C6)CC5)cc4)cc23)c1F (stereo not shown) [Example 172, 5-[4-[4-[2-[4-[4-(2,6-dioxo-3-piperidyl)-3-oxo-piperazin-1-yl]-3,3-difluoro-1-piperidyl]acetyl]piperazin-1-yl]phenyl]-3-[3-[[ethyl(methyl)sulfamoyl]amino]-2,6-difluoro-benzoyl]-1H-pyrrolo[2,3-b]pyridine] | 4.67 | 6.28

From patent US12559492B2, “BRAF degraders” (C4 Therapeutics, Inc., priority 2020, dated 2026)
